In paper doi:10.1101/2023.10.20.563248v1 (biorxiv, 2023):

Key:
Conditions in all cases: 1 µM; inhibitor
BMPR1B = BMPR1B (Homo sapiens, UniProt O00238)
MAP4K4 = MAP4K4 (Homo sapiens, UniProt O95819)
AKT2 = AKT2 (Homo sapiens, UniProt P31751)
NEK3 = NEK3 (Homo sapiens, UniProt P51956)
LRRK2 = LRRK2 (Homo sapiens, UniProt Q5S007)
ACVR2B = ACVR2B (Homo sapiens, UniProt Q13705)
p38g = p38g (Homo sapiens, UniProt P53778)
PAK2 = PAK2 (Homo sapiens, UniProt Q13177)
FGFR2 = FGFR2 (Homo sapiens, UniProt P21802)
PHKG2 = PHKG2 (Homo sapiens, UniProt P15735)
NDR2 = NDR2 (Homo sapiens, UniProt Q9Y2H1)
PAK4 = PAK4 (Homo sapiens, UniProt O96013)
CSK = CSK (Homo sapiens, UniProt P41240)
BRAF = BRAF (Homo sapiens, UniProt P15056)
WNK1 = WNK1 (Homo sapiens, UniProt Q9H4A3)
FLT4 = FLT4 (Homo sapiens, UniProt P35916)
SGK2 = SGK2 (Homo sapiens, UniProt Q9HBY8)
CK1a = CK1a (Homo sapiens, UniProt P48729)
CK1g3 = CK1g3 (Homo sapiens, UniProt Q9Y6M4)
PKCg = PKCg (Homo sapiens, UniProt P05129)
DMPK = DMPK (Homo sapiens, UniProt Q09013)
HIPK1 = HIPK1 (Homo sapiens, UniProt Q86Z02)
SGK3 = SGK3 (Homo sapiens, UniProt Q96BR1)
GRK2 = GRK2 (Homo sapiens, UniProt P25098)
MELK = MELK (Homo sapiens, UniProt Q14680)
IKKe = IKKe (Homo sapiens, UniProt Q14164)
PLK1 = PLK1 (Homo sapiens, UniProt P53350)
MST4 = MST4 (Homo sapiens, UniProt Q9P289)
BUB1B = BUB1B (Homo sapiens, UniProt O60566)
CHK2 = CHK2 (Homo sapiens, UniProt O96017)
PKCmu = PKCmu (Homo sapiens, UniProt Q15139)

Chain of PLK1 (P53350 whole entry): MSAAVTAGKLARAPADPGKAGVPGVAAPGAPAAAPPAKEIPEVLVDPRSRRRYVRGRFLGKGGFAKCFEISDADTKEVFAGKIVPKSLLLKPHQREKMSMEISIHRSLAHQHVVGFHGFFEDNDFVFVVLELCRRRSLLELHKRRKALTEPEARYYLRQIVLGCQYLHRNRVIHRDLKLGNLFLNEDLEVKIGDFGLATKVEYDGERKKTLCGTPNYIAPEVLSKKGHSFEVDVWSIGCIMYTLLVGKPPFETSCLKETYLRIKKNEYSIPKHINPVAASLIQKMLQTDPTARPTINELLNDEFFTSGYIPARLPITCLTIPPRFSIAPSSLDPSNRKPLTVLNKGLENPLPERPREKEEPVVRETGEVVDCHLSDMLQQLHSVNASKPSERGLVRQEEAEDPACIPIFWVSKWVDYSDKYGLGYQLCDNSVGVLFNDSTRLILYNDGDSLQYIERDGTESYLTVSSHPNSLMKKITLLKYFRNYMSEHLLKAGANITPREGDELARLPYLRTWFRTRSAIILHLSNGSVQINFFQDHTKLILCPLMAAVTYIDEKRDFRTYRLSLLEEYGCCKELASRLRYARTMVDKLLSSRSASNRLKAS
Chain of ACVR2B (Q13705 whole entry): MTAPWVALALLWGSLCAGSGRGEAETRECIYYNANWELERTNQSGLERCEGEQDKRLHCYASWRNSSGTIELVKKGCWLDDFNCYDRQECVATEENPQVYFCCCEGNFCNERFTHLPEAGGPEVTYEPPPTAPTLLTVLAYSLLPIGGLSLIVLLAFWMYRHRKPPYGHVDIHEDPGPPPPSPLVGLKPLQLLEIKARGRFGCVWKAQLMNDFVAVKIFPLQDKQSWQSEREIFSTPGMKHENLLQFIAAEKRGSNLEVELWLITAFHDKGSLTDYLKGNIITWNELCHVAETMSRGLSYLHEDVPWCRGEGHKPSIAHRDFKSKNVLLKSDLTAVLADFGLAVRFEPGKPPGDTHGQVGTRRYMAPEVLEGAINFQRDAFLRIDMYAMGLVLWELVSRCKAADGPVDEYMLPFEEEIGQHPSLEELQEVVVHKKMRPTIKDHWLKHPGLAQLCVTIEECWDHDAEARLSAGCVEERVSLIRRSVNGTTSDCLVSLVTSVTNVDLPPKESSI
Chain of WNK1 (Q9H4A3 whole entry): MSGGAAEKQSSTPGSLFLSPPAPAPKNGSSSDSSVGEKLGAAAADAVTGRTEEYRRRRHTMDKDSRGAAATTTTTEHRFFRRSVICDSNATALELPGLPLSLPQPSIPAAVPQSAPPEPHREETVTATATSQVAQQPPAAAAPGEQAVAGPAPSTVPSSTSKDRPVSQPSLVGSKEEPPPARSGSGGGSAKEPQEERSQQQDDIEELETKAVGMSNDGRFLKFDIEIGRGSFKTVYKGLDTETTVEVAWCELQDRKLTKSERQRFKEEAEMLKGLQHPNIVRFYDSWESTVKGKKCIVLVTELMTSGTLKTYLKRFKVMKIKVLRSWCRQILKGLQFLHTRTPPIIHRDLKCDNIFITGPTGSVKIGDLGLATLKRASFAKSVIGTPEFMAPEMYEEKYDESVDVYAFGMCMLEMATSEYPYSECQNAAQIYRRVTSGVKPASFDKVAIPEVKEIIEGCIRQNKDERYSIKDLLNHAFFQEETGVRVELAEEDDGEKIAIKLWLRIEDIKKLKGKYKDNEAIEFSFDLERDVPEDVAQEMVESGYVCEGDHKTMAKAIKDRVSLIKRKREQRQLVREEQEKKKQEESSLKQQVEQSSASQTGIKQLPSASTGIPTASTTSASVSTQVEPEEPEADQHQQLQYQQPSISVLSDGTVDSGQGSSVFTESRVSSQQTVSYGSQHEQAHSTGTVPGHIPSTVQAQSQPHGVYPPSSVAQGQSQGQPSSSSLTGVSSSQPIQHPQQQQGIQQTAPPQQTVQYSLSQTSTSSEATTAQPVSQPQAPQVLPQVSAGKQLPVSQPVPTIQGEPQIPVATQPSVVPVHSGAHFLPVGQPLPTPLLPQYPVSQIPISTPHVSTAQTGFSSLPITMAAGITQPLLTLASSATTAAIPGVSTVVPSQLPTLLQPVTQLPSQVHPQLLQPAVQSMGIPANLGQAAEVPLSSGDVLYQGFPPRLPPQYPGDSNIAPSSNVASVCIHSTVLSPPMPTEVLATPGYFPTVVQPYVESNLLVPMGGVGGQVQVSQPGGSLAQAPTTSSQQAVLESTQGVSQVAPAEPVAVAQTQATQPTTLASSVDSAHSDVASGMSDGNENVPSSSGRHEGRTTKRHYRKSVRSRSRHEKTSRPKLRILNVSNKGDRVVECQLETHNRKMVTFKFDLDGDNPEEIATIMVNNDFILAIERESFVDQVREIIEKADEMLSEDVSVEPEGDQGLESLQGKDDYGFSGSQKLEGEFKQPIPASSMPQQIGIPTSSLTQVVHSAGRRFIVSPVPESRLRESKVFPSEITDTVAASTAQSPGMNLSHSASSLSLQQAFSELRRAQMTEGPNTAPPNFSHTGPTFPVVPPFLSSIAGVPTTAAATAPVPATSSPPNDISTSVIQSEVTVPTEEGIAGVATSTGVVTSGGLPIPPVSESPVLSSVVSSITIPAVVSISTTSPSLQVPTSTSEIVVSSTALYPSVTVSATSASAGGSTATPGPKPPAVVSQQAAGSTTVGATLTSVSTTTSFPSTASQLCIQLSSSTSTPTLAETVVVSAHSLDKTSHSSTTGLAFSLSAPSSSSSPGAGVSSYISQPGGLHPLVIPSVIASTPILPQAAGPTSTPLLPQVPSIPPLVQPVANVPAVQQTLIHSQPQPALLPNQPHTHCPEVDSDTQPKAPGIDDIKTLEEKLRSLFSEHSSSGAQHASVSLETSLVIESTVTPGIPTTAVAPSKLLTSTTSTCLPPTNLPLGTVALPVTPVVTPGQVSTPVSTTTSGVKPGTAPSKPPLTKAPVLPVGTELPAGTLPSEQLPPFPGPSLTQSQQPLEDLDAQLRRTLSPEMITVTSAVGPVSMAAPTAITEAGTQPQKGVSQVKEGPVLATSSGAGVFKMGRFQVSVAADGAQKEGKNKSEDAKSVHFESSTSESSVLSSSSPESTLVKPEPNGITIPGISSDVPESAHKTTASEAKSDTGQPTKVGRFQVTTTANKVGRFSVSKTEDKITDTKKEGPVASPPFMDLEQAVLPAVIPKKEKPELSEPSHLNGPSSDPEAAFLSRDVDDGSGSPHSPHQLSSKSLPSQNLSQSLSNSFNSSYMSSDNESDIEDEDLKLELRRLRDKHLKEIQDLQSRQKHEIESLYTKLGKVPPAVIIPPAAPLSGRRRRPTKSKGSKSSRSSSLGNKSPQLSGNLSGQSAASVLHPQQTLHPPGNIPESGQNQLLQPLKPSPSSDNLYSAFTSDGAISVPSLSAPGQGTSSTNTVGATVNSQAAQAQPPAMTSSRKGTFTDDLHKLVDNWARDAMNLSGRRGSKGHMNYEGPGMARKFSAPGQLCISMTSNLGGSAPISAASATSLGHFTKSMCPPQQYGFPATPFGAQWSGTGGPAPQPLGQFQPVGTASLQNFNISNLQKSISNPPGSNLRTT
Chain of DMPK (Q09013 whole entry): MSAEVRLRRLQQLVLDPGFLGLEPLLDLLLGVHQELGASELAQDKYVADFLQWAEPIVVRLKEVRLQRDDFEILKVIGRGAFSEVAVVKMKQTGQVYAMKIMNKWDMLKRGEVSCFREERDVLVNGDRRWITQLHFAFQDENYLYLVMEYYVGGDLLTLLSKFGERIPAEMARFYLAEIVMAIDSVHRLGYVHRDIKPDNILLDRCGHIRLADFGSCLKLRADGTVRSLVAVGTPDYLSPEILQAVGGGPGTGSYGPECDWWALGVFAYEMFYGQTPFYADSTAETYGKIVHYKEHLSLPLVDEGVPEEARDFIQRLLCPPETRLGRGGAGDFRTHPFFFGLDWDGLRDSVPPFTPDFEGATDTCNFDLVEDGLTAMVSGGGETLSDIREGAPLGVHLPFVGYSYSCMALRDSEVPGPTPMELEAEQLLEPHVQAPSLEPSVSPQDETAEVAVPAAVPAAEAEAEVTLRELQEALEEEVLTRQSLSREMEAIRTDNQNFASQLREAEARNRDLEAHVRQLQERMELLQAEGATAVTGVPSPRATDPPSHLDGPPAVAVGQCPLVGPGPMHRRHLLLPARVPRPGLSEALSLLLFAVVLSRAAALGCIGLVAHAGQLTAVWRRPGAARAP
Chain of BRAF (P15056 whole entry): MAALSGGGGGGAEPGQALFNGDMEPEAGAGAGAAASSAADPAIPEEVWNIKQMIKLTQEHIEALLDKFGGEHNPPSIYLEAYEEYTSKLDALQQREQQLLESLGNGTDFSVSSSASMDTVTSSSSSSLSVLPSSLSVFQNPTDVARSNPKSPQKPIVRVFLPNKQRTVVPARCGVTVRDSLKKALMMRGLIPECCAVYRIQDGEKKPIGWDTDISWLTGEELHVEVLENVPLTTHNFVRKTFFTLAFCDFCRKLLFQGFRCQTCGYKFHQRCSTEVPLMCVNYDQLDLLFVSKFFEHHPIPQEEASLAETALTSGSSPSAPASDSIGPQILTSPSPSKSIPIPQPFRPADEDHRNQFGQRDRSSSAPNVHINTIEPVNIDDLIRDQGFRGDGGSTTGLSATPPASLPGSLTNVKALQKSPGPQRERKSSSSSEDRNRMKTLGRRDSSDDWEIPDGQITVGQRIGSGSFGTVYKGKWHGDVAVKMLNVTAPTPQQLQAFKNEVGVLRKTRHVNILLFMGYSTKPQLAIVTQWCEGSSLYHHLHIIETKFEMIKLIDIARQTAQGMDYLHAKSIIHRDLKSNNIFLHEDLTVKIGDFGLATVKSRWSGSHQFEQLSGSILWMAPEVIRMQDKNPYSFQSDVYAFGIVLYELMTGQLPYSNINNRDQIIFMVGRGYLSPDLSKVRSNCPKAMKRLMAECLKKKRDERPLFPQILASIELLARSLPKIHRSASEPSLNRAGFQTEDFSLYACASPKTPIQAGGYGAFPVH

`O=C1NCCCCCNc2nc(c3ccccc3n2)Nc2cc1[nH]n2` [21c, (Z)-3^1H-2,5,11-triaza-1(4,2)-quinazolina-3(3,5)-pyrazolacycloundecaphan-4-one] was tested, and the “21c Remaining activity, percent of control [%]” value (BMPR1B) was 80.1%, the “21c Remaining activity, percent of control [%]” value (MAP4K4) was 81.0% and the “21c Remaining activity, percent of control [%]” value (AKT2) was 90.3%. For the same compound, the “21c Remaining activity, percent of control [%]” value (NEK3) was 94.1%, the “21c Remaining activity, percent of control [%]” value (LRRK2) was 90.3% and the “21c Remaining activity, percent of control [%]” value (ACVR2B) was 100.5%. The “21c Remaining activity, percent of control [%]” value (p38g) was 88.6%, the “21c Remaining activity, percent of control [%]” value (PAK2) was 113.2% and the “21c Remaining activity, percent of control [%]” value (FGFR2) was 79.5%. The “21c Remaining activity, percent of control [%]” value (PHKG2) was 98.0%, the “21c Remaining activity, percent of control [%]” value (NDR2) was 93.9% and the “21c Remaining activity, percent of control [%]” value (PAK4) was 95.1%. For the same compound, the “21c Remaining activity, percent of control [%]” value (CSK) was 73.5%, the “21c Remaining activity, percent of control [%]” value (BRAF) was 89.7% and the “21c Remaining activity, percent of control [%]” value (WNK1) was 94.9%. The “21c Remaining activity, percent of control [%]” value (FLT4) was 93.9%, the “21c Remaining activity, percent of control [%]” value (SGK2) was 105.5% and the “21c Remaining activity, percent of control [%]” value (CK1a) was 102.0%. For the same compound, the “21c Remaining activity, percent of control [%]” value (CK1g3) was 100.8%, the “21c Remaining activity, percent of control [%]” value (PKCg) was 79.4% and the “21c Remaining activity, percent of control [%]” value (DMPK) was 94.3%. For the same compound, the “21c Remaining activity, percent of control [%]” value (HIPK1) was 97.2%, the “21c Remaining activity, percent of control [%]” value (SGK3) was 96.1% and the “21c Remaining activity, percent of control [%]” value (GRK2) was 96.7%. For the same compound, the “21c Remaining activity, percent of control [%]” value (MELK) was 47.0%, the “21c Remaining activity, percent of control [%]” value (IKKe) was 103.6% and the “21c Remaining activity, percent of control [%]” value (PLK1) was 89.3%. The “21c Remaining activity, percent of control [%]” value (MST4) was 18.0%, the “21c Remaining activity, percent of control [%]” value (BUB1B) was 101.6% and the “21c Remaining activity, percent of control [%]” value (CHK2) was 84.0%. The “21c Remaining activity, percent of control [%]” value (PKCmu) was 96.1%.
